Measurements as given in patent publication US12649980B2, “Three-dimensional surface for protein and small molecule microarrays” (The Johns Hopkins University, priority 2019, dated 2026).

Legend:
[1] = tested on: PANC10.05; experiment: [3H]-2DG uptake assay in PANC10.05 cells; format: cell-based, human; conditions: PANC 10.05
Procedure: Hay, Nat. Rev. […] To determine whether RgA could inhibit glucose uptake in cancer cell lines in addition to A549, the impact of RgA on [3H]-2DG uptake in six other cancer cell lines, including HCC1954, MCF-7, PANC10.05, Jurkat T, HeLa, and RKO was measured (FIG. 3A, Table 3).
(§1) The inhibitory activity of compounds on glucose transport was analyzed by measuring the cell uptake of [3H]-2DG as previously described. Ulanovskaya et al., Chem. Biol. 2011, 18, 222-230. Briefly, cells were washed twice and incubated in low-glucose medium for 10 min. Cells were added drugs and incubated for another 10 min before adding [3H]-2DG. After 10 min incubation with [3H]-2DG, cells were washed twice and lysed with 0.2 N NaOH plus 0.2% SDS. The cell lysate was transferred to a new tube containing 1 mL of optiphase supermix. Glucose uptake was quantified with a scintillation counter.

[2] = tested on: Jurkat T; experiment: Alamar blue cell proliferation assay, Jurkat T; format: cell-based, human; conditions: 72 h, read-out: IC50 Assay B (Alamar blue cell proliferation)
Procedure: The effects of RgA on cell growth, survival, and cell death was then determined. […] Treatment with 5 μM of RgA caused an increase in G1 phase by approximately 23% in comparison to control and approximately 7% and 17% decreases in cells in S and G2/M phases, respectively. The induction in G1 phase cell cycle arrest by RgA is dose-dependent (FIG. 5A, FIG. 16). […] Jones and Thompson, Genes Dev. 2009, 23, 537-548. […] The IC50 values of RgA against several human cancer cell lines also was determined using the alamar blue cell proliferation assay.
Cells were seeded into a 96-well plate (Costar) in 180 μL culture media. After an overnight recovery, drugs were added and incubated for 72 h. After drug incubation, cells were added with 20 μL of alamar blue reagent and the plates were incubated at 37° C. for 6 h before reading the fluorescence (544 nm Ex/590 nm Em) with a plate reader. GraphPad Prism (v4.03) software was used to determine IC50 values using a four parameter logistic regression.

[3] = tested on: DLD1 WT; experiment: [3H]-2DG uptake in DLD1 WT cells; format: cell-based; conditions: DLD1 wild type
Procedure: as §1

[4] = tested on: DLD1 GLUT1 KO; experiment: [3H]-2DG uptake in DLD1 GLUT1 knockout cells; format: cell-based
Procedure: as §1

[5] = target: T1, GLUT1 (Homo sapiens, UniProt P11166); experiment: biotin-RgA pull-down and biotin probe competition binding assay, GLUT1; conditions: competition with 100 nM biotin-RgA probe, HEK293T GLUT1 lysate, Western blot densitometry; read-out: estimated Kd for GLUT1
T1 construct: The full-length human SLC2A1, SLC2A3, and SLC2A4 genes were PCR amplified and inserted into pLenti6M vector 2; expressed in transfected cells
T1 sequence (P11166 1-492): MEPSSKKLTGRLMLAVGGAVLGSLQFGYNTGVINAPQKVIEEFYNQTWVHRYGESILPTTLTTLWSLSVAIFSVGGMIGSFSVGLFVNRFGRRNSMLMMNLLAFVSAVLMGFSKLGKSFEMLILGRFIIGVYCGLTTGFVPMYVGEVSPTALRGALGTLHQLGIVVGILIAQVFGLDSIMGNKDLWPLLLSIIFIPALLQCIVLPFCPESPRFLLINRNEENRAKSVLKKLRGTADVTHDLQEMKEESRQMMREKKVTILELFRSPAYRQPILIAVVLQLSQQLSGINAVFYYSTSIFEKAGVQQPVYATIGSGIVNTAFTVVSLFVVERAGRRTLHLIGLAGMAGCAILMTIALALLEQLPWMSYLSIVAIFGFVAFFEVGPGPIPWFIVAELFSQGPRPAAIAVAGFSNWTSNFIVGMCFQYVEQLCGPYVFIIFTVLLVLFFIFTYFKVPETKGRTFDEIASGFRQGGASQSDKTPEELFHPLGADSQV
Procedure: Next, the binding affinity of RgA for GLUT1 was determined using a RgA biotin pull-down assay. A biotin-RgA conjugate was synthesized by tethering the biotin moiety through carbon:carbon double bond in the FKBP-binding domain of RgA (FIG. 13). […] Using the biotin-RgA conjugate, a pulldown experiment with cell lysate containing detergent-solubilized GLUT1 protein prepared from HEK293T cells overexpressing GLUT1 was performed, followed by Western blot analysis with a GLUT1-specific antibody.
The estimation of Kd value for RgA was determined with the biotin probe competition binding assay. […] After western blot, band intensities were quantified by densitometry analysis using Image J software. The assay was repeated three times. GraphPad Prism (v4.03) software was used to determine apparent Kd value for RgA using a nonlinear regression.

[6] = tested on: MCF-7 cells; experiment: LC/MS metabolite profiling of MCF-7 cells; format: cell-based, human
Procedure: To understand the metabolic impact of GLUT inhibition by RgA, the steady-state levels of 272 metabolites was determined using LC/MS, Liu et al, Anal. Chem. 2014, 86, 2175-2184, in MCF-7 cells upon treatment with RgA for 30 min and 6 h, respectively.
MCF-7 Cells were seeded into 6-well plate at a density of 5×10^5 cells per well, allowed to recover overnight and subsequently treated with RgA or vehicle control for 30 min and 6 h, respectively. Metabolites were extracted and analyzed as previously described. Liu et al., Anal. Chem. 2014, 86, 2175-2184.

[7] = MCF-7, 30 min and 6 h treatment

IC50 [1]: 9.5 nM | IC50 [2]: 132 nM | EC50 [3]: 17.5 ± 2.5 nM | EC50 ([4]; DLD1 GLUT1 knockout): 27.1 ± 3.6 nM | Kd [5]: 78 nM
SMILES: CCC(C)C1C(=O)NCC(=O)N(C)CCC=CC(=O)OCC(C)(C)C(=O)C(=O)N2CCCCC2C(=O)OC(CCc2ccc(OC)c(OC)c2)c2cccc(c2)NC(=O)CCC(=O)N(C)C(CC(C)C)C(=O)NC(Cc2ccccc2)C(=O)N1C (stereo not drawn) [JW11-D2, Rapaglutin A]
inhibitory activity in GLUT1 knock out cells ([4]; DLD-1 GLUT1 knock out versus wild type): retained its inhibitory activity | cellular ATP level and AMP/ATP ratio ([6]; MCF-7): increase in the AMP/ATP ratio | TCA cycle and redox status [6, 7]: not significantly affected | upper glycolytic and pentose phosphate pathway intermediates (G6P, F1,6-BP, DHAP, 6PGA, R5P, E4P) [6, 7]: significant decreases
